According to patent US8796241B2, “Therapy of tumors and infectious agents deficient in methylthioadenosine phosphorylase” (priority 2007, dated 2014):

Experiments:
[1] = system: MTAP-positive cells and cells lines; assay: Applicants' tissue culture experiments on protection of MTAP-positive cells (summary statements); type: cell-based, human; mouse
MTAP(+) HF cells [2] = assay: Coculture of HF and A549-ouaR cells, clonogenic assay; type: cell-based, human; conditions: addition of 5′-dAdo to DAP
Protocol: (§1) Cell viability of adherent cell types was measured by clonogenic assay as follows: after releasing cells with trypsin and removing a portion of the cell suspension for Coulter counting, the remainder of the cell suspension was plated in serial dilutions in growth medium, without drugs. After a period sufficient for clones to reach a size visible by eye (usually 2 to 3 weeks), clones were stained with crystal violet in a saline/methanol solution. Dishes that had fewer than 100 clones were deemed suitable for counting. From these counts and from the dilution factors, the approximate number of viable cells, in the parent treatment dishes, was calculated. […] In clonogenic assays, clone size was often variable, especially after treatment with toxic drugs. Moreover, many of the very small clones may have arisen from cells detached during the weeks of incubation. […] Cloning efficiency for healthy, growing A549 cells was about 50%; for HF cells, efficiency was quite variable, ranging from 25 to 75% (perhaps because the HF cell stock varied, from experiment to experiment, in passage number).
HF and A549-ouaR (a ouabain-resistant derivative of the human lung carcinoma cell line A549, isolated by Applicants) cells were cultured together in a medium containing DAP, and with or without 5′-dAdo. After 3 days, cultures were trypsinized and serially diluted into fresh medium for clonogenic assays. Some dishes were treated with 0.1 μM ouabain to kill HF cells and permit easy visualization of surviving A549-ouaR clones. Initial viable cells: HF cells, 11,000; A549-ouaR cells, 40,000.

MTAP(+) ML-1 cells = assay: Coulter counts of ML-1 suspension cultures; type: cell-based
Protocol: (§2) For cell types that grow in suspension (e.g., ML-1, HL-60, K-562) medium was RPMI-1640 with 10% FBS (undialyzed).
(§3) For adherent cell types, cell numbers were determined periodically by releasing cells with trypsin (dead cells that were no longer adherent were removed by two prior rinses of the culture dish) and placing a portion of the resulting cell suspension in a Coulter counter. For cell types that grow in suspension, portions of the culture were counted directly, without trypsin treatment. Coulter counts of cells from each dish were done twice, and almost all experiments were done in duplicate. In the presentation of results, raw data for Coulter counts is given in some cases, while in others, counts have been rounded off to two to three significant figures. (Background Coulter counts—i.e., counts of diluent alone—were insignificant.)
(§4) For cells that grow in suspension, the effect of treatments was assessed solely by changes in Coulter count.
• ML-1 cells were incubated in RPMI 1640 with 10% FBS with 5′-dAdo (60 μM) for 6 hours. 5-fluorouracil (FU), 6-thioguanine (TG), or 2,6-diaminopurine (DAP) were then added, and after 2 additional days, 0.5 ml was taken for Coulter counts. Initial Coulter count/ml: 308,000

MTAP(+) HF cells [3] = assay: Clonogenic assay of HF cells; type: cell-based, human; conditions: 30 μM 5′-dAdo, 2 μM F-Ade, 3 days
Protocol: as §1
• B. F-Ade was added to cultures of MTAP(+) HF cells, with or without 5′-dAdo, for 3 days. Cultures were then trypsinized and serially diluted for clonogenic assay. • Initial number of viable cells per dish: 45,000 • Viable cells after 3 days shown below:
• HF cells were plated, and after they had adhered to the substrate, medium was changed to methionine-free medium, with 10% dialyzed serum. • Initial Coulter count: 73,000*; viable cells: 88,000 • After 3 days in methionine-free medium, with or without L-ethionine (Eth) or MTA: […]

MTAP(−) HL-60 cells = assay: Coulter counts of HL-60 suspension cultures; type: cell-based; conditions: Example 13
Protocol: as §2, §3, §4
• HL-60 cells were grown in RPMI 1640 with 10% FBS. 5′-dAdo, adenine, or neither were added, and after 3 hours, 5-fluorouracil (FU) was added to selected dishes. Six days later, cell numbers were assessed in a Coulter counter. • Initial cell number/ml: 8,160

MTAP-negative cell lines = assay: Applicants' tissue culture experiments on MTAP-negative cell lines (summary statements); type: cell-based, human; mouse; conditions: L1210, HL-60, K-562, MCF7, MDA-MB-231, A549, PANC-1
MTAP(+) HF cells [4] = assay: Coulter counts of HF cell cultures; type: cell-based, human
Protocol: For adherent cell types (e.g., HF, A549, MCF7) cells were plated in 60 mm -diameter plastic tissue culture dishes and incubated at 37° C. in a humidified 5% CO2 atmosphere, in Dulbecco's Modified Eagle's Medium (DME) with 10% fetal bovine serum (FBS). At the start of an experiment, medium was replaced with DME and 10% dialyzed FBS.
as §3
Cell cultures were treated with MeP, with or without 5′-dAdo or MTA, for 4 days. The cell cultures were then changed to fresh medium, with the addition of 30 μM Ade to inhibit further action of the analog. Two days later cultures were trypsinized and a portion of the suspension was counted.
• A. F-Ade was added to cultures of HF cells, with varying amounts of 5′-dAdo. After 3 days, cell numbers were counted. • Initial cell count: 1,100 • After three days:
• Cultures of human fibroblasts were treated with DAP, 5′-dAdo, MTA, adenine, or MTX. Thymidine (15 μM) was added to all cultures. • Initial count was: 1807 • Counts, as raw data, after 3 days of incubation, are shown below: […]
• Human fibroblasts in culture were treated with 6-thioguanine (TG), 2,6-diaminopurine (DAP), or 5′-dAdo for 3 days. After trypsinization, cell numbers were counted. • Initial cell number: 296,000

mice = conditions: high doses; cited from earlier work

C[C@H]1O[C@@H](n2cnc3c(N)ncnc32)[C@H](O)[C@@H]1O [5′-dAdo, 5′-deoxyadenosine]
protection from highly toxic doses of adenine and/or methionine competitive antagonists ([1]; HF, mouse hematopoietic progenitors, HT-29, ML-1, EJ, T-47D, ZR-75-1, MDA-MB-468): provide protection | blocking of toxicity of very high doses of 2,6-diaminopurine, 2-fluoroadenine, 6-methylpurine ([1]; normal human and mouse cells): effectively blocked | protection of HF cells from DAP in coculture (MTAP(+) HF cells [2]): protected | Increase in cell number/ml, 60 μM 5′-dAdo (MTAP(+) ML-1 cells; 5′-dAdo 60 μM for 6 hours, then 2 days with FU 3 μM, TG 20 μM, DAP 50 μM where present, initial Coulter count/ml 308,000): 918,000 /ml | protection against growth inhibition caused by FU, TG and DAP, individually and in combination (MTAP(+) ML-1 cells; Example 14): effectively protected | blocking of F-Ade toxicity in HF cells (MTAP(+) HF cells [3]): effectively blocks | protection of HL-60 cells from FU toxicity (MTAP(−) HL-60 cells): not protected | protection against the toxicity of adenine and/or methionine antagonists (MTAP-negative cell lines): inability | Coulter counts (MTAP(+) HF cells [4]; 3 days, 5′-dAdo 60 μM, no F-Ade, initial count 1,100, x56 = cells/dish): 8150 | protection of HF cells against MeP toxicity (MTAP(+) HF cells [4]; Example 3): effectively protected | blocking of DAP toxicity in HF cells (MTAP(+) HF cells [4]; Example 8): blocked | blocking of inhibition by TG and by DAP in HF cells (MTAP(+) HF cells [4]; Example 15): blocked inhibition | protection of HF cells from the combined toxicity of TG and DAP (MTAP(+) HF cells [4]; Example 15): protected | protection from toxicity of F-Ade (MTAP(+) HF cells [4]; increasing concentration of 5′-dAdo): so does protection | toxicity in vivo (mice): non-toxic
